Article PMC13012276 (British journal of pharmacology, 2022)
Several values for one entry are separate records, joined by “and”; a condition that tells them apart may be missing. Equal entries are not always repeated. Where two headings read alike, the source gives them in different places. Marks after values point to notes of the source that are not given here.

Key:
[1] = system: Nav channels; conditions: ref Ghovanloo, Shuart, et al. (2018), cited from earlier work
[2] = system: Nav channels; assay: CBD inhibition of Nav channels; type: cell-based; conditions: Table 1, from literature CBD values
[3] = system: voltage-gated sodium (Nav) channels in rat CA1 hippocampal neurons; conditions: cited from earlier work
[4] = molecular target: T1, human Nav1.7 channels (Homo sapiens, UniProt Q15858); assay: State-dependent inhibition of sodium currents, automated patch-clamp; type: cell-based
T1 sequence (Q15858 whole entry): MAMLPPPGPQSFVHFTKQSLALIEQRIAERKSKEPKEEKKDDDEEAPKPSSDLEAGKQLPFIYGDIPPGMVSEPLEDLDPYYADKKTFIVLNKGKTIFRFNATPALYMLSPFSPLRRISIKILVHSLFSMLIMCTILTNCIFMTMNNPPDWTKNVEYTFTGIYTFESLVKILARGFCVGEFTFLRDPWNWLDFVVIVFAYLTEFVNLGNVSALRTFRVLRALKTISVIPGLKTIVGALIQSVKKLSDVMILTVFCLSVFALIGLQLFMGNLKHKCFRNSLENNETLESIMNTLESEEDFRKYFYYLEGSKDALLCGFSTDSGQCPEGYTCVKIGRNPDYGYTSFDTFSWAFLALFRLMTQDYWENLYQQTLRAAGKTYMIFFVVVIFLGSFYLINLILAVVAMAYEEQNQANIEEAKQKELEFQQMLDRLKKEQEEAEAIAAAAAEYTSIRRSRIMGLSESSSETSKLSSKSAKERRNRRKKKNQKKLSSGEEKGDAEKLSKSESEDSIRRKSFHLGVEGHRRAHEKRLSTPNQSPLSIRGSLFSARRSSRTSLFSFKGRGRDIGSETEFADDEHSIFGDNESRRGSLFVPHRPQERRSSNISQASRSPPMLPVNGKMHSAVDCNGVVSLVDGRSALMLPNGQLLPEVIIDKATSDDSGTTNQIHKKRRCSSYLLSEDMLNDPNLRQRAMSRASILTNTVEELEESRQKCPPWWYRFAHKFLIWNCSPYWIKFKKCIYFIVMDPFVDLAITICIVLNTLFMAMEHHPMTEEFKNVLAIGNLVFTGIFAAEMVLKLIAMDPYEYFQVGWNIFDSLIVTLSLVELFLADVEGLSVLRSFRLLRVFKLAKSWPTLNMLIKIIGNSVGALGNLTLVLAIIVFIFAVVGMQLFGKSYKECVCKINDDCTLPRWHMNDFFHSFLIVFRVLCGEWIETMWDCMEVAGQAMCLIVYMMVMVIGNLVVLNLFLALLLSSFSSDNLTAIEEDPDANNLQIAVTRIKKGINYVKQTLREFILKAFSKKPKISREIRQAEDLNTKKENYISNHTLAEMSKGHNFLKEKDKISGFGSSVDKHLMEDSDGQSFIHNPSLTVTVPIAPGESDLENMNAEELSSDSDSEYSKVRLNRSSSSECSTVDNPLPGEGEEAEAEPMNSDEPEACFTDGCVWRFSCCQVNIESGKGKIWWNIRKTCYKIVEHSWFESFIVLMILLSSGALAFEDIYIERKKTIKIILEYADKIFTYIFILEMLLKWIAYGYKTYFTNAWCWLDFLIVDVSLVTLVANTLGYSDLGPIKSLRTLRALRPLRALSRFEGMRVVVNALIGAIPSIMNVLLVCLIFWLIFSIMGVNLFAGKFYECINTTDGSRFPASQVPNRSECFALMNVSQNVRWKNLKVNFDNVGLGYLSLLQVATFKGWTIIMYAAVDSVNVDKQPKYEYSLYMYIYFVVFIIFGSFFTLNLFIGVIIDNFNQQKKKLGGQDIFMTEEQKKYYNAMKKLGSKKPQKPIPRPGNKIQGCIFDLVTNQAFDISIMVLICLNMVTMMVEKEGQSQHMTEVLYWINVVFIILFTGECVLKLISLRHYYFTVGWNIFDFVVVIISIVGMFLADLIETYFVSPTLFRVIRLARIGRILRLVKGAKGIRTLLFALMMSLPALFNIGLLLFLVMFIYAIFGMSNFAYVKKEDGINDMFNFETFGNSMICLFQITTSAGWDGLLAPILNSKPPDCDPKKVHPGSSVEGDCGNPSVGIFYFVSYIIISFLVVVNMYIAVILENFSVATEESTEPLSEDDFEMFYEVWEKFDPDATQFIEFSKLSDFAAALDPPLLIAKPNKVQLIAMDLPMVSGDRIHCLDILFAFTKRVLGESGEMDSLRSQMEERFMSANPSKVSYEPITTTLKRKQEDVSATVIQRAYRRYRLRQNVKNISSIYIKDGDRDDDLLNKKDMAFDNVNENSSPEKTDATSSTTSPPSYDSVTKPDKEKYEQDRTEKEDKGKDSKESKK
T1 sequence (Q07699 19-218 partner): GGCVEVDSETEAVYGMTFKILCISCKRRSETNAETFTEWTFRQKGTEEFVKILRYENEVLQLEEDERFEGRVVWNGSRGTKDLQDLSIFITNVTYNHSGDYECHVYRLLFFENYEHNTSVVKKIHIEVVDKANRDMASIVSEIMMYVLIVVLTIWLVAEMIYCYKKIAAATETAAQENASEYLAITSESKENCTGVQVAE

[5] = system: TTX-resistant Nav current in rat DRG neurons; type: cell-based
[6] = molecular target: T1, human Nav1.7 channels; assay: Activation / peak conductance protocol, automated patch-clamp; type: cell-based
[7] = molecular target: T1, human Nav1.7 channels; assay: Steady-state inactivation; type: cell-based
[8] = system: TTX-sensitive Nav channels; conditions: read-out: IC50 of TTX-sensitive channels; cited from earlier work

For `C=C(C)[C@@H]1CCC(C)=C[C@H]1c1c(O)cc(CCCCC)cc1O` [CBD, cannabidiol], the State dependence ([1]; Table 1) is listed as ~10^a, the IC50 ([1]; read-out: IC50 on Nav channels, Table 1) is listed as 1 to 12 µM and the State dependence [1] is listed as ~ 10 fold. For the same molecule, the “Concentration/fold state dependence (ratio)” value [2] was 1.1.
For `CCCCCc1cc(O)c(C/C=C(\C)CCC=C(C)C)c(O)c1` [CBG, cannabigerol], the “Effect on Nav current density and action potential frequency” value [3] is listed as “decreases current density”, the “Concentration/fold state dependence (ratio)” value [4] is listed as 2 and the “Fold less potent than CBD in inhibiting Nav channels” value [4] is listed as “about 2 fold”. The Hill slope [4] was 1.2 ± 0.3 and 2.3 ± 0.5 and 1.6 ± 0.4, the “Hill slopes (range across holding potentials)” value [4] was 1.2–2.3 and the Ki [4] was 2 to 20 µM. The “Nav channels prevented from opening” value [4] was ~ 30%, the State dependence [4] was about 10 and the “State dependence (inactivated vs resting state potency)” value [4] was ~ 10 fold and ~ 11 fold. For the same molecule, the “average Hill-slope” value [4] was ~ 2, the IC50 ([4]; IC50 (range across holding potentials), holding potentials −110 to −90 mV) was 4.6 to 18.8 µM and the IC50 ([4]; IC50, holding potential −90 mV, pulse 180 (3 min), mean ± SEM) was 4.6 ± 1.1 µM. For the same molecule, the IC50 ([4]; IC50, holding potential −100 mV, pulse 180 (3 min), mean ± SEM) was 9.3 ± 1 µM, the IC50 ([4]; IC50, holding potential −110 mV, pulse 180 (3 min), mean ± SEM) was 18.8 ± 2.9 µM and the “Inhibition of TTX-resistant current” value [5] was ~ 50%. The IC50 [6] was about 3.5 µM, the “Reduction in sodium current density” value [6] was ~ 90% and the V1/2 of activation [6] was −46.4 ± 5.6 mV. The “Vehicle Gmax left” value [6] was ~ 10%, the slope of activation [6] was 5.2 ± 2.2 and the “Hyperpolarization of voltage dependence of SSI” value [7] was ~ 12 mV. The “Percentage shift of inactivation V1/2 relative to vehicle” value [7] was “about 25%”, the “Rate time constant of open-state inactivation vs vehicle” value [7] was “did not differ significantly” and the IC50 ([7]; IC50 for V1/2 (inactivation shift), Hill fit of normalized data, estimated) was about 13.2 µM. The inhibition at 15 µM ([7]; read-out: Inhibition of current at the test pulse) was about 90%.
For `NC1=N[C@H](O)[C@H]2[C@H]3O[C@]4(O)O[C@@H]([C@@H](O)[C@@]2(N1)[C@@H]4O)[C@]3(O)CO` [TTX, tetrodotoxin], the IC50 [8] is given as 0.01 to 0.03 µM.
